{"source": "patent US20220296615A1", "about": "“COMBINATION PRODUCT CONTAINING LIMONOID COMPOUND AND SULFONYLUREA COMPOUND” (ZHEJIANG YANGSHENGTANG INSTITUTE OF NATURAL MEDICATION CO., …, priority 2019, published 2022)", "format_in_all_cases": "in vivo", "key": {"[1]": {"test_system": "STZ mice (type II diabetes with pancreatic islet damage and obesity)", "test": "Blood glucose in mouse type II diabetes model with pancreatic islet damage and obesity (STZ + high-fat diet), limonoid compound, glimepiride or combination", "details": "STZ + high-fat diet ICR mice, single administration 0.5 g/kg per day by gavage, two weeks, 1 h after last administration; model group 29.6 ± 6.0, normal 5.9 ± 0.54", "source_text": "In this example, a mouse model of type II diabetes with pancreatic islet damage and obesity was established by multiple modeling ICR mice with a small dose of streptozotocin (STZ), following with continuous high-fat diets (referring to literature: […] Conditions of experimental feeding: ICR mice (20±2 g), aged 6 weeks, purchased from Zhejiang Academy of Medical Sciences, and subjected to experimental feeding after 7 days of preliminary feeding. It should be noted that the conditions for raising the mice were as follows: the temperature was 23±1° C., the humidity was 55±10%, the lights were turned on between 7 am and 7 pm (the lights were turned off at other time), and the mice were allowed to freely take in water and feed. The experimental feed was mouse growth-stable feed (GB […]), and the daily feeding and management of the animals were under the responsibility of the animal security department, which provided the animals with sufficient diet and fresh drinking water daily. […] The data were expressed as mean and standard deviation. The data before and after were analyzed by t-test, and P<0.05 was considered statistically significant."}, "db/db mice [2]": {"test_system": "db/db mice", "test": "Blood glucose and leptin in mouse type II diabetes model, limonoid compound, gliclazide or combination", "details": "single administration 0.04 g/kg per day by gavage, two weeks, 1 h after last administration, model group 23.9 ± 4.2, normal 6.0 ± 0.7", "source_text": "In the present example, db/db mice (line name BKS.Cg-Dock7^m+/+Lepr^db/Nju) were used to perform hypoglycemic efficacy evaluation test of animals (blood glucose level and leptin). The limonoid compound was selected from obacunone, isoobacunoic acid and obacunone glycoside, and gliclazide single administration group, obacunone single administration group, isoobacunoic acid single administration group, obacunone glycoside single administered group, and respective combination thereof with gliclazide administration groups were set. Conditions for experimental feeding: as type II diabetes model mice, 6-week-old SPF-grade db/db mice were purchased from the Nanjing Model Biology Institute, and subjected to experimental feeding after 7 days of preliminary feeding. It should be noted that the conditions for raising the mice were as follows: the temperature was 23±1° C., the humidity was 55±10%, the lights were turned on between 7 am and 7 pm (the lights were turned off at other time), and the mice were allowed to freely take in water and feed. […] The data were expressed as mean and standard deviation. The data before and after were analyzed by t-test, and P<0.05 was considered statistically significant."}, "db/db mice [3]": {"test_system": "db/db mice", "test": "Blood glucose and insulin in mouse type II diabetes model, limonoid compound, gliquidone or combination", "details": "single administration 0.2 g/kg per day by gavage, two weeks", "source_text": "In the present embodiment, the limonoid compound was selected from nomilin, deacetylnomilin, nomilin acid, deacetylnomilin acid glycoside, and gliquidone single administration group, nomilin single administration group, deacetylnomilin single administration group, nomilin acid single administered group, deacetylnomilin acid glycoside single administration group, and respective combination thereof with gliquidone administration groups were set.\nConditions for experimental feeding: as type II diabetes model mice, 6-week-old SPF-grade db/db mice were purchased from the Nanjing Model Biology Institute, and subjected to experimental feeding after 7 days of preliminary feeding. It should be noted that the conditions for raising the mice were as follows: the temperature was 23±1° C., the humidity was 55±10%, the lights were turned on between 7 am and 7 pm (the lights were turned off at other time), and the mice were allowed to freely take in water and feed. The experimental feed was mouse growth-stable feed (GB M2118), and the daily feeding and management of the animals were under the responsibility of the animal security department, which provided the animals with sufficient diet and fresh drinking water daily.\nExperimental grouping: male db/db mice (20±2 g) were selected, 18 male mice in each group were tested, and drinking bottles were sterilized weekly. […]"}, "[4]": {"test_system": "STZ mice (mouse pancreatic islet β-cell injury model)", "test": "Blood glucose in mouse pancreatic islet β-cell injury model (STZ), limonoid compound, glipizide or combination", "details": "STZ ICR mice, single administration 0.1 g/kg per day by gavage, two weeks, 1 h after last administration; model group 29.5 ± 4.6, normal 7.5 ± 0.6", "source_text": "In this example, a mouse pancreatic islet β-cell injury model was established by modeling ICR mice with streptozotocin (STZ) (Li Nan et al., Protective effect of pine pollen on kidney damage in diabetic nephropathy mice, Science and Technology Review, 2014, 32 (4/5): 95-99), and used to complete the evaluation of hypoglycemic effect in animals (this model could simulate pancreatic islet β-cell damage state of type I and type II diabetics). […]\nGavage doses: the gavage dose was 0.1 g/kg per day for the ichangin group, the gavage dose was 0.1 g/kg per day for the ichangensin group, the gavage dose was 0.1 g/kg per day for the ichangin glycoside group, the gavage dose of glipizide was 0.1 g/kg per day for the glipizide group, ichangin at a dose of 0.05 g/kg and glipizide at a dose of 0.05 g/kg were simultaneously gavaged per day for the ichangin/glipizide combination group, ichangensin at a dose of 0.05 g/kg and glipizide at a dose of 0.05 g/kg were simultaneously gavaged per day for the ichangensin/glipizide combination group, ichangin glycoside at a dose of 0.05 g/kg and glipizide at a dose of 0.05 g/kg were simultaneously gavaged per day for the ichangin glycoside/glipizide combination group, the gavage volume was 10 mL/kg, and the normal group and the model group were administrated with 10 mL/kg of distilled water. […] The data were expressed as mean and standard deviation. […]"}, "[5]": {"test_system": "STZ mice (mouse pancreatic islet β-cell injury model)", "test": "Blood glucose in mouse pancreatic islet β-cell injury model (STZ), limonoid compound, glibenclamide or combination", "details": "STZ ICR mice, single administration 0.02 g/kg per day by gavage, two weeks, 1 h after last administration; model group 29.5 ± 4.6, normal 7.5 ± 0.6", "source_text": "The limonoid compound was selected from the group consisting of limonin, isolimonic acid, limonin glycoside, and isolimonic acid glycoside, and glibenclamide single administration group, limonin single administration group, isolimonic acid single administration group, limonin glycoside singe administration group, isolimonic acid glycoside singe administration group, and respective combination thereof with glibenclamide administration groups were set. Conditions of experimental feeding: ICR mice (20±2 g), aged 6 weeks, purchased from Zhejiang Academy of Medical Sciences, and subjected to experimental feeding after 7 days of preliminary feeding. It should be noted that the conditions for raising the mice were as follows: the temperature was 23±1° C., the humidity was 55±10%, the lights were turned on between 7 am and 7 pm (the lights were turned off at other time), and the mice were allowed to freely take in water and feed. The experimental feed was mouse growth-stable feed (GB […]), and the daily feeding and management of the animals were under the responsibility of the animal security department, which provided the animals with sufficient diet and fresh drinking water daily. […] The data were expressed as mean and standard deviation. The data before and after were analyzed by t-test, and P<0.05 was considered statistically significant."}}, "data": [{"compound": "CCC1=C(C)CN(C(=O)NCCc2ccc(S(=O)(=O)NC(=O)N[C@H]3CC[C@H](C)CC3)cc2)C1=O", "note": "[Glimepiride, glimepiride]", "values": [{"measurement": "Blood glucose value", "setting": "[1]", "result": "10.4 ± 2.1", "unit": "mmol/L"}]}, {"compound": "Cc1ccc(S(=O)(=O)NC(=O)NN2CC3CCCC3C2)cc1", "note": "(stereo not drawn) [Gliclazide, gliclazide]", "values": [{"measurement": "Blood glucose value", "setting": "db/db mice [2]", "result": "11.5 ± 2.9", "unit": "mmol/L"}]}, {"compound": "COc1ccc2c(c1)C(=O)N(CCc1ccc(S(=O)(=O)NC(=O)NC3CCCCC3)cc1)C(=O)C2(C)C", "note": "[gliquidone]", "values": [{"measurement": "Insulin", "setting": "db/db mice [3]; serum, ELISA, model group 10.56 ± 3.00, normal 1.05 ± 0.39", "result": "7.82 ± 1.52", "unit": "pg/mL"}, {"measurement": "Blood glucose value", "setting": "db/db mice [3]; 1 h after last administration, model group 23.9 ± 4.2, normal 6.0 ± 0.7", "result": "10.3 ± 2.1", "unit": "mmol/L"}]}, {"compound": "Cc1cnc(C(=O)NCCc2ccc(S(=O)(=O)NC(=O)NC3CCCCC3)cc2)cn1", "note": "[Glipizide, glipizide]", "values": [{"measurement": "Blood glucose value", "setting": "[4]", "result": "14.5 ± 2.3", "unit": "mmol/L"}]}, {"compound": "COc1ccc(Cl)cc1C(=O)NCCc1ccc(S(=O)(=O)NC(=O)NC2CCCCC2)cc1", "note": "[Glibenclamide, glibenclamide]", "values": [{"measurement": "Blood glucose value", "setting": "[5]", "result": "18.3 ± 3.2", "unit": "mmol/L"}]}]}
